Results from patent US9067894B1, “Compound, composition, and method of activating GIRK potassium channel and use of same for treating conditions of interest” (Vanderbilt University, priority 2013, dated 2015).

Tests used:
[1] = target: T1, Histamine H3 (Homo sapiens, UniProt Q9Y5N1); assay: Radioligand displacement (Ricerca); assay type: binding
T1 construct: Ricerca (contract laboratory that ran the panel)

[2] = target: T2, GIRK1/2 (Homo sapiens, UniProt P48051+P48549); assay: Thallium flux assay, HEK-293 cells expressing GIRK1/2; assay type: cell-based; set-up: host or cells: HEK-293; conditions: cell line GIRK1-2; average ± SEM; read-out: EC50 Thallium Flux
T2 sequence (P48549 1-501): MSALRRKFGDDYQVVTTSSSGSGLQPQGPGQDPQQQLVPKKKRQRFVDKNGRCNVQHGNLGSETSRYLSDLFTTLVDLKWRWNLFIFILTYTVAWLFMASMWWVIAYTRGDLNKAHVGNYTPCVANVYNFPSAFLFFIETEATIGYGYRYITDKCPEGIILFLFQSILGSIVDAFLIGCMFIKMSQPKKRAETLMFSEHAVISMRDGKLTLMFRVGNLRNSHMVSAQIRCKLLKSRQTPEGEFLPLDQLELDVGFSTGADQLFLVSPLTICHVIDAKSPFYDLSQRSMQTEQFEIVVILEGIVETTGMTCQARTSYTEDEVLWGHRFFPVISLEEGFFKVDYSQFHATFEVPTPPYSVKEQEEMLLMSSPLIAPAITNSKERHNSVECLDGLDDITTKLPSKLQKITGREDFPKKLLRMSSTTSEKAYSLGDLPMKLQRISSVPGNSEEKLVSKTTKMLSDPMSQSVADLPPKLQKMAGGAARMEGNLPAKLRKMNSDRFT
T2 sequence (P48051 1-423): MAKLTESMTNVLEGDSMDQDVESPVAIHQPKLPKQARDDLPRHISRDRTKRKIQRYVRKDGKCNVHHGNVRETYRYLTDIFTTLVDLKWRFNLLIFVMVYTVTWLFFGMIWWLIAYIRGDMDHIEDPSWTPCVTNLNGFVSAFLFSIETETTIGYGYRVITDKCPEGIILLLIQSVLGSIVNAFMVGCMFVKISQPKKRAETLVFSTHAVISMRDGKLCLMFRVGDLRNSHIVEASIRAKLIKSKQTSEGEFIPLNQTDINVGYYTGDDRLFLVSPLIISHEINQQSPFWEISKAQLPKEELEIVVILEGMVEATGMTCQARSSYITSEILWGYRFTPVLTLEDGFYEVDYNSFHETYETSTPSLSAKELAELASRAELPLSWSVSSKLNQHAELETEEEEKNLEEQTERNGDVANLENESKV
Excerpt: Cell Line Construction and Cell Culture. HEK-293 cells co-expressing human GIRK1/2 and rat mGlu8 were generated as previously described (Niswender et al., 2008). A HEK-293 cell line (ATCC, Manassas, Va.) expressing human GIRK1 and human GIRK2 was constructed by transfecting HEK-293 cells with GIRK1 and GIRK2 (Origene, Rockville, Md.) cloned into the pBudCE4.1 vector (Life Technologies, Carlsbad, Calif.) using FuGene 6 (Promega, Madison, Wis.) transfection reagent. Unless otherwise noted, other ion channel-expressing cells were prepared by transfecting HEK-293 cells with individual or combinations of subunits: GIRK1, pCMV6-A-BSD; GIRK2, pCMV6-A-puro; GIRK3, pCMV6-A-hygro; GIRK4, pCMV6-A-AC; Kv7.4, pIRESneo3. The Kir2.1 and hERG-expressing cell lines were made by transfecting T-REx-293 cells (Life Technologies, Carlsbad, Calif.) with Kir2.1 and Kv11.1, respectively, cloned into pcDNA5TO. Monoclonal cell lines were produced by limiting-dilution cloning of antibiotic-resistant cells and functional selection using the thallium flux assay described below. Unless otherwise noted, cells were maintained in Minimal Essential Medium, Alpha Medium (Mediatech, Manassas, Va.) supplemented with 10% fetal bovine serum (Sigma-Aldrich, Saint Louis, Mo.) and GlutaGro (Mediatech, Manassas, Va.), referred to henceforth as cell culture medium. […]

T1 sequence (Q9Y5N1 whole entry): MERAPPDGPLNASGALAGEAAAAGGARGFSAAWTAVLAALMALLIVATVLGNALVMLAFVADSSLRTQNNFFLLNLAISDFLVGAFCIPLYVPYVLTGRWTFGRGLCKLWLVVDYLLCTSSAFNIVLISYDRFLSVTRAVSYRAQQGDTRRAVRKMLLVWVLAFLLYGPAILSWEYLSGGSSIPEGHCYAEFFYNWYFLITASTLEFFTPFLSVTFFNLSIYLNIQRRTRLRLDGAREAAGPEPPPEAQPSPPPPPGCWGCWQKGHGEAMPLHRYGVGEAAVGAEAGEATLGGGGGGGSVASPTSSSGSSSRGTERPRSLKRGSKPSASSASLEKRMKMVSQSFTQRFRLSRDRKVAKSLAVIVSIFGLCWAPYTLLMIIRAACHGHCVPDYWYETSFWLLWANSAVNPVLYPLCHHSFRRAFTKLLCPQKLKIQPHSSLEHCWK

Compound Cc1cc(NC(=O)Nc2ccc(F)c(F)c2)n(-c2ccccc2)n1 [VU0456810, 1-(3,4-difluorophenyl)-3-(3-methyl-1-phenyl-1H-pyrazol-5-yl)urea] has an inhibition at 10 µM [1] of 1% and an EC50 [2] of 162 ± 89 nM.
